Test results published in paper PMC6943441, “The Meta-Position of Phe^4 in Leu-Enkephalin Regulates Potency, Selectivity, Functional Activity, and Signaling Bias at the Delta and Mu Opioid Receptors” (Molecules, 2019).
pEC50, pKi: −log10 of the molar value. Like-named read-outs stand apart in the source and are kept apart here. Square brackets hold non-standard residues; d marks the D form. Peptide text beside a SMILES is read from it. 4Pal = N[C@@H](Cc1ccncc1)C(=O)O

Key:
Rat plasma stability = assay: Rat plasma stability
Method: Peptides were synthesized using an Aapptec Focus XC automated peptide synthesizer coupled with a heating system using a solid phase peptide synthesis protocol using Fmoc chemistry. Preparative RP-HPLC was performed using an appropriate column and solvent system (described below) and final purity of peptides was determined by UV area % from UPLC analysis. Peptides were purified by Teledyne ISCO EZ Prep system on RediSep® C18 Prep column (30 × 250 mm, 100 Å). […] Plasma stability was also assessed using the above UPLC column and solvent gradient program using a Waters H class Plus Acquity UPLC system coupled with a QDa detector using protocol B.
Sprague Dawley rat plasma containing K2-ethylenediaminetetraacetic acid (Innovative Research, MI, USA) was transferred into 300 µL aliquots and stored at −20 °C until use. […] After adding analog, an aliquot of the mixture was removed at each indicated time point (0, 5, 10, 15, 20, 30, 60, 120, 240 min) and immediately quenched with 100 μL of a methanol solution containing 20 μM Fmoc-Leu-OH as an internal standard. […] Then, the filtrate was transferred into vials and a 5 μL sample of the resulting solution was analyzed on an UPLC system coupled with a QDa detector. […] Determination of half-life (t1/2) was carried out by using the GraphPad Prism one-phase decay method.

HA-mouse µOR = biological target: T1, HA-mouse µOR (Mus musculus, UniProt P42866); assay: cAMP GloSensor inhibition assay in HEK 293 cells; assay type: cell-based; settings: HEK 293, forskolin 30 µM; read-out: cAMP IC50 (nM) µOR
T1 construct: HA; expressed in transfected cells; host or cells: HEK 293
Method: (§2) In brief, for cAMP inhibition assays HEK 293 (Life Technologies, Grand Island, NY, USA) cells were transiently transfected in a 1:3 ratio with FLAG-mouse δOR, or HA-mouse µOR and pGloSensor22F-cAMP plasmids (Promega, Madison, WI, USA) using Xtremegene9 (Sigma). Two days post-transfection cells (20,000 cells/well, 7.5 µL) were seeded in low volume Greiner 384-well plates (#82051-458, VWR, Batavia, IL, USA) and were incubated with Glosensor reagent (Promega, 7.5 µL, 2% final concentration) for 90 min at room temperature. […] For β-arrestin recruitment assays, CHO-human µOR PathHunter β-arrestin 2 cells or CHO-human δOR PathHunter β-arrestin 2 cells (DiscoverX, Fremont, CA, USA) were plated (2,500 cells/well, 10 µL) one day prior to stimulation with 2.5 µL drug solution for 90 min at 37 °C/5% CO2, after which cells were incubated with 6 µL cell PathHunter assay buffer (DiscoverX) for 60 min at room temperature as per the manufacturer’s protocol. Luminescence for each of these assays was measured using a FlexStation3 plate reader (Molecular Devices, Sunnyvale, CA, USA).
(§3) All data are presented as means ± standard error of the mean, and analysis was performed using GraphPad Prism 8 software (GraphPad Software, La Jolla, CA). For in vitro assays, nonlinear regression was conducted to determine pIC50 (cAMP) or pEC50 (β-arrestin 2 recruitment). […] The averages of each independent run were counted as a single experiment and combined to provide a composite curve in favor of providing a ‘representative’ curve. In each experimental run, a positive control/reference compound was utilized to allow the data to be normalized and to calculate the log bias value. A minimum of three independent values were obtained for each compound in each of the cellular assays.

δOR [1] = biological target: T2, δOR (Homo sapiens, UniProt P41143); assay: PathHunter β-arrestin 2 recruitment assay in CHO cells
Method: as §2, §3

FLAG-mouse δOR = biological target: T3, FLAG-mouse δOR (Mus musculus, UniProt P32300); assay: cAMP GloSensor inhibition assay in HEK 293 cells; assay type: cell-based
T3 construct: FLAG; expressed in transfected cells; host or cells: HEK 293
Method: as §2, §3

µOR [2] = biological target: T4, µOR (Homo sapiens, UniProt P35372); assay: cell-based; assay type: cell-based; settings: CHO PathHunter; read-out: β-Arrestin 2 EC50 (nM) µOR
Method: as §2, §3

δOR [3] = biological target: T2, δOR; assay: Competition radioligand binding, [3H]DPDPE
Method: (§1) Next, 100 µL of membrane suspension containing 7 µg protein was added to the agonist wells and incubated for 90 min at room temperature. The reaction mixture was then filtered over a GF-B filter plate (Perkin Elmer) followed by four quick washes with ice-cold 50 mM Tris HCl. The plate was dried overnight, after which 50 µL scintillation fluid (Ultimagold uLLT) was added and radioactivity was counted on a Packard TopCount NXT scintillation counter. All working solutions were prepared in a radioligand assay buffer containing 50 mM Tris HCl, 10 mM MgCl2, and 1 mM ethylenediaminetetraacetic acid at pH 7.4.

µOR [4] = biological target: T4, µOR; assay: Competition radioligand binding, [3H]DAMGO
Method: as §1

δOR [5] = biological target: T2, δOR; settings: at best; cited from earlier work
µOR [6] = biological target: T4, µOR; settings: BRET (β-arrestin 2) and EPAC (cAMP) assays; footnote prints reference 26; cited from earlier work
δOR [7] = biological target: T2, δOR; settings: cited from earlier work
δOR [8] = biological target: T2, δOR; settings: literature value; cited from earlier work
δOR [9] = biological target: T2, δOR; settings: cited from earlier work; remark: listed apart in the source

T2 sequence (P41143 whole entry): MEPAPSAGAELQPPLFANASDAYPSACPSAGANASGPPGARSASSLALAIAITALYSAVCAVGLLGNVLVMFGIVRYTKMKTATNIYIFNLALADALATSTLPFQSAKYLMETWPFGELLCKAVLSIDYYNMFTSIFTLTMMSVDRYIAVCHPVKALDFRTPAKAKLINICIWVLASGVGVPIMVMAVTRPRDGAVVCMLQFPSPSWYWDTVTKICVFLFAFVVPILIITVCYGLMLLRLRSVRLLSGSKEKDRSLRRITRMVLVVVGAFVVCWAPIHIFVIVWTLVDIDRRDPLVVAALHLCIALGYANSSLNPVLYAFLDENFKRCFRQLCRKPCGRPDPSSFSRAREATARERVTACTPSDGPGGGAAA
T4 sequence (P35372 whole entry): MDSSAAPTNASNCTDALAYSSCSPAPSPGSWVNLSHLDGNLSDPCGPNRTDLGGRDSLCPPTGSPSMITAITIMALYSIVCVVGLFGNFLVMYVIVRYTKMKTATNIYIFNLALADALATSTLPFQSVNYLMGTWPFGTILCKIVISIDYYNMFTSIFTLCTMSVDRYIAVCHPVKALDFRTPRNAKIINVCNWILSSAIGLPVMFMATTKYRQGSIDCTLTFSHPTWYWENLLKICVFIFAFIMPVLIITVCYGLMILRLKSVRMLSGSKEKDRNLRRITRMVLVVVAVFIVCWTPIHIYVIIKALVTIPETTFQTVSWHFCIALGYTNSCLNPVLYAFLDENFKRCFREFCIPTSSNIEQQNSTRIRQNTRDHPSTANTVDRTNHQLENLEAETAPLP
T3 sequence (P32300 whole entry): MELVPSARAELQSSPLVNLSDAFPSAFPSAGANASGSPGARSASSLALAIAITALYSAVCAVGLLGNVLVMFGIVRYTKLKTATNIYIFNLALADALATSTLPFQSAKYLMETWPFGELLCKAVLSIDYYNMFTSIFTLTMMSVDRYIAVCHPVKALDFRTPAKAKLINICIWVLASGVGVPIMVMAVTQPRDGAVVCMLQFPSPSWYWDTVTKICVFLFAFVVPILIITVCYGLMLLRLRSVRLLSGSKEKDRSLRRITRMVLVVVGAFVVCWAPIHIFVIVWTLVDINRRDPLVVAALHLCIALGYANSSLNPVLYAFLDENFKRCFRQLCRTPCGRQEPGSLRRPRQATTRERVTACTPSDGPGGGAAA
T1 sequence (P42866 whole entry): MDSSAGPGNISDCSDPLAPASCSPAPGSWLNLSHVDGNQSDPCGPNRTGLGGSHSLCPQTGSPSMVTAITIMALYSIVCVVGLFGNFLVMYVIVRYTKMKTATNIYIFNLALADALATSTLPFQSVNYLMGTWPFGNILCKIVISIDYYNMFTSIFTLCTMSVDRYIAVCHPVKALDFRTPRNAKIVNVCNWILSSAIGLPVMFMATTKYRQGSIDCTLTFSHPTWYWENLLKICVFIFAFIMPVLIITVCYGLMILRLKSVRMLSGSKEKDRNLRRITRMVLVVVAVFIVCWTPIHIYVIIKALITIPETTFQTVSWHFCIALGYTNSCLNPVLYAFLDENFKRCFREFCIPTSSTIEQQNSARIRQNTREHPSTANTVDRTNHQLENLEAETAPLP

With `CC(C)C[C@H](NC(=O)[C@H](Cc1ccncc1)NC(=O)CNC(=O)CNC(=O)[C@@H](N)Cc1ccc(O)cc1)C(=O)O` [Compound 1l] (H-YGG[4Pal]L-OH; N-terminus and C-terminus assumed) the “Degradation Products (First Appearance)” value (Rat plasma stability; rat plasma, UPLC-mass spectrometry, time of first appearance in parentheses) was “(4-pyridyl)Ala-Leu (10 min) Gly-Gly-(4-pyridyl)Ala-Leu (30 min)”, the half-life (Rat plasma stability; rat, plasma) was 78.1 min and the IC50 (HA-mouse µOR) was 302 nM. The pEC50 (δOR [1]) was 6.40, the IC50 (FLAG-mouse δOR; HEK 293, forskolin 30 µM, read-out: cAMP IC50 (nM) δOR) was 30.2 nM and the “G Protein Selectivity (δOR vs µOR)” value (FLAG-mouse δOR; cAMP potency δOR vs µOR) was 10. For the same molecule, the EC50 (µOR [2]) was 37200 nM, the pKi (δOR [3]) was 7.69 and the “Binding Selectivity (δOR vs µOR)” value (δOR [3]; ratio of Ki values) was 1.9. The pKi (µOR [4]) was 7.41.

For Dmt-Tic-Gly-NH-Ph, the “selectivity for δORs over µORs” value (δOR [5]) is listed as ≤ 10 fold.

In the case of aza-β-homoleucine-enkephalin, the “Bias Factor µOR (LE = Ref)” value (µOR [6]) is listed as 1.2, the “β-arrestin 2 efficacy” value (δOR [7]) is listed as 64% and the “selectivity for δORs over µORs” value (δOR [5]) is listed as ≤ 10 fold. For the same molecule, the “G Protein Selectivity (δOR vs µOR)” value (δOR [8]) was 9.9 [23], the “Bias Factor δOR” value (δOR [9]; BRET (β-arrestin 2) and EPAC (cAMP) assays, footnote prints reference 26) was 5.2 and the “Bias Factor δOR” value (δOR [9]; BRET (β-arrestin 2) and EPAC (cAMP) assays, footnote prints reference 26, listed as Aza-β-homoleucine) was 5.2 ^¶.

In the case of rubiscolin-6, the “β-arrestin 2 efficacy” value (δOR [7]) is listed as 20% and the “Bias Factor δOR” value (δOR [9]; literature value) is listed as 2.0.
